According to patent publication US20220016101A1 (ACADIA Pharmaceuticals Inc., priority 2018, published 2022):
Where “and” joins values, the source holds several entries; their conditions need not be identical. Equal values may be shown once.

Experiments:
[1] = system: patients with MDD and an inadequate response to an SSRI or SNRI; test: Safety and tolerability (adverse events), Study ACP-103-042
[2] = system: patients with MDD and an inadequate response to an SSRI or SNRI; test: HAMD-17 Item 14 (sexual interest), Study ACP-103-042; type: in vivo, human; details: Week 5
From the text: The determination of the subject's status and eligibility for randomization in Stage 2 was made in a double-blind manner.

[3] = system: patients with MDD and an inadequate response to an SSRI or SNRI; test: HAMD-17 total score, adjunctive pimavanserin in MDD (Study ACP-103-042); type: in vivo, human; details: for Response Rate: 50% or greater reduction on HAMD-17
From the text: “Hamilton Depression Scale 17-item (HAMD-17)” is a multiple item questionnaire used to provide an indication of depression, and is known to those skilled in the art. The questionnaire is designed for adults to rate the severity of depression by probing mood, feelings of guilt, suicide ideation, insomnia, work and interests, agitation or retardation, anxiety, weight loss, and somatic symptoms. Each item on the questionnaire is scored on a 3 or 5 point scale, depending on the item, and the total score is compared to the corresponding descriptor. A score of 0-7 is considered to be normal. Scores of 14 or higher indicate moderate, severe, or very severe depression. Assessment time is estimated at 20 minutes. […] Key endpoints were change from baseline to the end of each stage for the HAMD-17 total score and SDS score. The study consisted of an 8- to 21-day screening period, a 10-week double-blind treatment period, and a safety follow up period of up to 30 days. Screening assessments consisted of the SAFER Interview ([…] al, Harv Rev Psychiatry. 2013; 21(5):269-74), which included the MADRS, CGI-S, and MGH ATRQ. […] All patients continued on their SSRI or SNRI at a stable dose for the duration of the study. […] Inadequate treatment response was determined through the administration of the MGH ATRQ administered during the SAFER interview. […] Clinic visits occurred weekly from Weeks 1 through 10. The MADRS was administered at screening and baseline. The HAMD-17, SDS, CGI, and KSS were administered at baseline and weekly during the study. Other endpoints such as the SF-12 were administered at baseline and Weeks 5 and 10. Treatment response was defined as a reduction of 50% from baseline for the HAMD-17 total score, and remission was defined as a HAMD-17 total score […] The determination of the subject's status and eligibility for randomization in Stage 2 was made in a double-blind manner.

serotonin transporter = serotonin transporter (Homo sapiens, UniProt P31645); test: Receptor profile: affinity (Ki) at SERT; type: binding; details: data on file
serotonin transporter, sequence (P31645 whole entry): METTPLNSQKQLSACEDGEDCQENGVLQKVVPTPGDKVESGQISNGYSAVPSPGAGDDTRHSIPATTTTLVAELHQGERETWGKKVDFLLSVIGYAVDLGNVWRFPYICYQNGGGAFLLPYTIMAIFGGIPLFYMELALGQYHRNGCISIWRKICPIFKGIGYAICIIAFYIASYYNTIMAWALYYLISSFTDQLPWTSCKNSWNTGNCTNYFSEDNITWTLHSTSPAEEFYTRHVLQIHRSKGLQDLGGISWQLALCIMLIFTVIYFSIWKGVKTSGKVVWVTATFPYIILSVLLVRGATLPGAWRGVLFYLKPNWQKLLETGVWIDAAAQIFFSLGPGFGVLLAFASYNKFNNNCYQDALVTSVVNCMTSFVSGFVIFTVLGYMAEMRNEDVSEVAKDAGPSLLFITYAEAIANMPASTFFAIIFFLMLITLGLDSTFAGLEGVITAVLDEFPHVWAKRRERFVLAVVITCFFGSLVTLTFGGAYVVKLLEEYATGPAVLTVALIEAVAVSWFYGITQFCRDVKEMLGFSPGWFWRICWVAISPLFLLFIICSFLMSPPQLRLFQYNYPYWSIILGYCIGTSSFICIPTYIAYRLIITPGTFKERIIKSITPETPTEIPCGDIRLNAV

dopamine transporter = dopamine transporter (Homo sapiens, UniProt Q01959); test: Receptor profile: affinity (Ki) at DAT; type: binding; details: data on file
dopamine transporter, sequence (Q01959 whole entry): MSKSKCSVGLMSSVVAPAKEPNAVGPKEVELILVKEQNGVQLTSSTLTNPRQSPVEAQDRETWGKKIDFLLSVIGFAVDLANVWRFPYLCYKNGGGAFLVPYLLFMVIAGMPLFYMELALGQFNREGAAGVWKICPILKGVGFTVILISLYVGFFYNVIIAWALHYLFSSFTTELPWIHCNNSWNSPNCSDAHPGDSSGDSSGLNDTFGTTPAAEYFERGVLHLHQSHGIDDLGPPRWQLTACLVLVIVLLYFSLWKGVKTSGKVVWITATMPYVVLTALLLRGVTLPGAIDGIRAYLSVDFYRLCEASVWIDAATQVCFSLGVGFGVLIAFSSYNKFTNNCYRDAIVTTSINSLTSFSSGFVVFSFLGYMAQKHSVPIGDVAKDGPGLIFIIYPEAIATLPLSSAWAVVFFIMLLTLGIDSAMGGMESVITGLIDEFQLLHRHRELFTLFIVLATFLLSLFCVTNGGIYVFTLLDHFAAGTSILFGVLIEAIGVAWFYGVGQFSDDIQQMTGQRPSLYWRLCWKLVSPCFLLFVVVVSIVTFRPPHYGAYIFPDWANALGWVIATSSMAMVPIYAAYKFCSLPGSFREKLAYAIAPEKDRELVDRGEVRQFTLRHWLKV

[4] = Stage 1, subgroup baseline anxiety/somatization subscale score ≥7
[5] = Stage 2, subgroup baseline anxiety/somatization subscale score ≥7

CC(C)COc1ccc(CNC(=O)N(Cc2ccc(F)cc2)C2CCN(C)CC2)cc1 [pimavanserin, N-(4-Fluorophenylmethyl)-N-(1-methylpiperidin-4-yl)-N′-(4-(2-methylpropyloxy)phenylmethyl)carbamide]
Discontinuations due to adverse events ([1]; 34 mg QD + SSRI/SNRI): 1.2% and 1.9% | rates of daytime sleepiness, weight gain, metabolic laboratory tests, and sexual dysfunction ([1]; 34 mg QD + SSRI/SNRI): low rates | tolerability ([1]; 34 mg QD + SSRI/SNRI): generally well-tolerated | tolerability ([1]; 34 mg QD + SSRI/SNRI, listed as Pimavanserin): well tolerated | subjects reporting serious adverse events ([1]; deemed not related to study drug): One subject | HAMD-17 Item 14 (sexual interest) Cohen's d effect size [2]: 0.574 | HAMD-17 Item 14 (sexual interest) LS Mean (SE) change from baseline ([2]; 34 mg QD + SSRI/SNRI): −0.7 (0.12) | NNT for remission ([3]; Stage 1): 8.1 | early improvement (reduction from baseline in HAMD-17 total score of 20% or more) vs placebo ([3]; Stage 1): early improvement at week 1 was observed | response and remission rates vs placebo ([3]; Stage 1, Week 2 through Week 5): significantly (p<0.05) greater | HAMD-17 total score LSmean (SE) change from baseline to Week 5 ([3]; Stage 1, 34 mg QD + SSRI/SNRI): −11.5 (0.94) | Remission Rate ([3]; Stage 1, 34 mg QD + SSRI/SNRI): 23.5% | HAMD-17 total score LSmean (SE) change from baseline to Week 5 ([3]; Stage 1, 34 mg QD + SSRI/SNRI, listed as Pimavanserin): −11.5 | Response Rate ([3]; Stage 1, 34 mg QD + SSRI/SNRI): 52.9% | NNT for response ([3]; Stage 1, response = reduction of 50% from baseline HAMD-17 total score): 3.6 | HAMD-17 total score Diff in LSM (SE) vs placebo [3, 4]: −6.6 (1.64) | HAMD-17 total score effect size (Cohen's d) [3, 4]: 0.940 | HAMD-17 total score LSM (SE) Change from Baseline to Week 5 ([3]; Stage 1, subgroup baseline anxiety/somatization subscale score ≥7, 34 mg QD + SSRI/SNRI): −14.1 (1.39) | HAMD-17 total score effect size (Cohen's d) ([3]; Stage 1 Week 5, 34 mg QD + SSRI/SNRI): 0.626 and ~0.6 | HAMD-17 total score effect size (Cohen's d) ([3]; Stage 1 Week 5, 34 mg QD + SSRI/SNRI, listed as Pimavanserin): 0.626 | HAMD-17 total score LSM change from baseline to Week 5 ([3]; Stage 2 (placebo non-responders re-randomized), 34 mg QD + SSRI/SNRI): −2.8 | HAMD-17 Cohen's d ([3]; Stage 2, 34 mg QD + SSRI/SNRI): −0.107 | HAMD-17 difference between pimavanserin and placebo (delta) ([3]; Stage 2, 34 mg QD + SSRI/SNRI): 0.5 | Remission Rate ([3]; Stage 2, 34 mg QD + SSRI/SNRI): 3.4% | Response Rate ([3]; Stage 2, 34 mg QD + SSRI/SNRI): 6.9% | HAMD-17 total score Diff in LSM (SE) vs placebo [3, 5]: 0.9 (1.84) | HAMD-17 total score effect size (Cohen's d) [3, 5]: −0.173 | HAMD-17 total score LSM (SE) Change from Baseline to Week 5 ([3]; Stage 2, subgroup baseline anxiety/somatization subscale score ≥7, 34 mg QD + SSRI/SNRI): −3.4 (1.25) | HAMD-17 effect size, treatment difference in LSmean change from baseline to Week 10 ([3]; continuous treatment for 10 weeks in Stages 1 and 2, 34 mg QD + SSRI/SNRI): 0.497 | HAMD-17 total LSmean difference [standard error] pimavanserin vs placebo ([3]; overall (weighted Stage 1 and Stage 2), 34 mg QD + SSRI/SNRI): -1.7 (0.85) | Ki (serotonin transporter): > 1000 nM | Ki (dopamine transporter): > 1000 nM
